Like-named read-outs stand apart in the source and are kept apart here.
What was measured:
Hep-G2 cells [1] = assay type: cell-based; settings: for Fluorescence Intensity, DAPI Image: 380 nm exc; for Fluorescence Intensity, DAPI Image / Fluorescence Intensity, Alexa Image: complex 1×10^−6 M; for Fluorescence Intensity, Alexa Image: 640 nm exc
Protocol: (§1) The culture medium was prepared by dissolving 13.4 g of DMEM-high glucose (Sigma, USA) in 1 L of distilled water. Sodium bicarbonate (3.7 g L^−1) was added to the medium and the pH of the medium was adjusted to 7.4. This medium was then sterilized by passing through a sterile filter assembly fitted with a 0.22 μm filter (Millipore, USA) using a vacuum pump. Later, the medium was stored in pre-sterilized Borosil polypropylene bottles, at 4° C., until further use. To the prepared culture medium an antibiotic mixture (20 μL mL^−1 of 100× concentrate, Sigma, USA) was added. Fetal bovine serum (FBS) (Sigma, USA) was also added to the medium to give a final concentration of 10% (to 900 mL medium, 100 mL of FBS was added).
Hep G2 cells (Human Hepatocellular carcinoma cell lines), which was obtained, from National Centre for Cell Science, Pune, India, were stored in cryovials at −196° C. in liquid nitrogen, in a medium containing 70% FBS, 10% dimethyl sulfoxide (DMSO) and 20% DMEM. For revival, the vials were thawed by placing them in a water-bath maintained at 37° C. for 2-3 minutes followed by centrifugation at 3000 rpm for 3 minutes. Supernatent was removed and the pellet after suspending in medium were transferred into a radiation sterilized culturing flask, T-25 cm^2 (BD Biosciences) inside the laminar flow. Subsequently, the flask was placed in a CO2 incubator for 2 h. The viable cells stick to the culture flask while the dead cells remain in the medium. Later the medium was replaced with fresh medium containing 10% FBS and incubated till a cell confluency of 70-80%. The medium was then discarded following desired confluency. Following confluency, since the Hep G2 cells are adherent in nature, they were trypsinised by using 1 mL of trypsin (0.25%)—EDTA (0.53 mM) buffer containing 0.9% sodium chloride for […]. The cells were then transferred to a centrifuge tube and centrifuged at 2000 rpm for 3 min, followed by the removal of the supernatant.
For sub culturing, fresh DMEM containing 10% FBS was added under aseptic conditions. Cells were flushed with the help of pipette (1 mL) until the cells are completely dispersed into the medium. The cells were then diluted in a sterile complete medium at 1:3 times and transferred into fresh culture flasks. Then the flasks were placed inside CO2 incubator.
The 1:6 Sq-BSA Complex whose sensitivity of pH lies within the physiological region and due to the ratiometric fluorescence response (FIG. 14) was used in this system for monitoring minor pH fluctuations inside cells ratiometrically. Hep-G2 cells were pre-incubated with phosphate buffer of different pH (6.5, 7.0, 7.5) and kept for 10 minutes. The 1:6 Sq-BSA complex (1×10^−6 M), which was prepared by mixing 5 μl of Sq (4×10^−5 M, prepared in acetonitrile) and 15 μl of BSA protein (1.2×10^−3 M, prepared in phosphate buffer 4.2) was added to each cells and kept for 10 minutes. The cells were then centrifuged and diluted for 2 times and then images has taken using confocal fluorescence microscope using alexa (640 nm exc) and DAPI (380 nm exc) as filters. With respect to the pH of the wells the fluorescence intensity from the DAPI image was enhanced and the alexa image got quenched. Quantitative data for pH measurements in cells were obtained using bio-rad image data, explorer software (table 2). The viability of the cells after incubation of Sq-BSA complex was confirmed by the bright-field transmission measurements (FIG. 15 c, bottom).

[2] = tested on: other thiol and nonthiol containing proteins (heamoglobin, glutathione reductase, bromelain); assay: Selectivity against other thiol and nonthiol containing proteins; assay type: binding
Source text: (§2) This selectivity apparently originates from the Sq disassembly driven by the molecular recognition sites of the serum albumin proteins.

[3] = Stability of the dye over pH; assay type: physicochemical
Source text: Even though noncovalent interaction of serum albumin proteins and covalent interaction of thiol containing small molecules with squaraine dyes are known in individual cases, achieving both type of interaction by a single probe in a reversible fashion with an external stimulus remains challenging. Therefore, the first and foremost task was identifying an appropriate switchable dye molecule, which is stable at a broad pH window with distinct emission wavelengths during the different modes of interactions and having a tunable pH responsive interaction. […] This absorption band is similar to the absorption of Sq in acetonitrile in which the molecule exists in the monomeric state. […] Sq (6 μM) in a 25 mM phosphate buffer (pH 4.2) has no emission at 700 nm due to the aggregation. Upon addition of BSA protein, a gradual enhancement in the fluorescence intensity at 700 nm was observed (FIG. 7b). This fluorescence enhancement is due to the disassembly of aggregates and the consequent noncovalent interaction between Sq and BSA protein. The solution of the Sq dye in 25 mM phosphate buffer has a blue color and at this stage the dye is non emissive (FIG. 7c, top).

HSA protein = HSA protein (Homo sapiens, UniProt P02768); assay: Noncovalent (pH 4.2) and covalent (pH 8.2) labeling of serum albumin, fluorescence turn-on; assay type: binding; settings: 25 mM phosphate buffer, 6 μM
Sequence of HSA protein (P02768 25-609): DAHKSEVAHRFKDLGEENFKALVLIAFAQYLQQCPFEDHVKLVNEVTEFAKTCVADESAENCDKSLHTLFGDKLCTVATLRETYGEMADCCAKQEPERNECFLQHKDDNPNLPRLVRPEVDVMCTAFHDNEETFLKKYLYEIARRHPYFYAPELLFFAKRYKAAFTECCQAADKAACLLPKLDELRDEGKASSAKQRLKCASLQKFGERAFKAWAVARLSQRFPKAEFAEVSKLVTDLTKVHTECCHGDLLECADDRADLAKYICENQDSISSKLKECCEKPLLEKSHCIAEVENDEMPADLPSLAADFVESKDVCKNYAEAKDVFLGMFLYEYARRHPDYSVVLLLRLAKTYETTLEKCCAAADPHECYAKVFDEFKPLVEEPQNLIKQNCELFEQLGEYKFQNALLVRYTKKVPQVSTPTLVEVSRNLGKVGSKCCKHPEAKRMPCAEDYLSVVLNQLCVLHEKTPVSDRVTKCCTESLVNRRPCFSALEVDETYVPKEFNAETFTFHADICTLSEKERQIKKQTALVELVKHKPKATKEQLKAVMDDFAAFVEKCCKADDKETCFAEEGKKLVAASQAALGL
Source text: as §2

[4] = Selectivity against small thiol containing molecules in self-assembled state; settings: 10 equivalent; Sq 6×10^−6 M; 480 nm
Source text: The selectivity of our nanoprobe towards serum albumin proteins from small thiol containing molecules like cysteine, homocysteine, glutathione, mercaptoethanol, dithiothreitol, cystamine and thioglycolic acid at a higher pH of 8.2, where the dye is expected to undergo thiol alkylation reaction is investigated. […] Bar diagram represents the selectivity of Sq (6×10^−6 M) for BSA and HSA protein (6×10^−6 M) from other small thiol containing molecules (FIG. 10) which clearly indicate that the probe in its self-assembled state is able to detect serum albumin protein among other thiol containing small molecules.

[5] = Self-assembly morphology by AFM, TEM and DLS; assay type: physicochemical
Source text: The self-assembly of Sq was established by atomic force microscopy (AFM), transition electron microscopy (TEM) and DLS analysis. […] The dynamic light scattering (DLS) measurements of a buffer solution containing.

[6] = Fluorescence detection of thiols (GSH) by Sq, selectivity and sensitivity; settings: pH 8.0
Protocol: Sq detects GSH quantitatively with high sensitivity (2 nM) (FIG. 3). Formula 1 prepared in 30% ACN/25 mM phosphate buffer is used for monitoring thiol variations inside cells. […] The aggregation was confirmed by temperature-dependent UV/Vis and emission spectroscopic studies in 15% acetonitrile/water mixture (FIG. 5a and FIG. 5b). The self-assembly of Sq was established further by atomic force microscopy (AFM), transition electron microscopy (TEM) and DLS analysis. […] Formula 1 prepared in 25 mM phosphate buffer solution at a pH of 4.2 labels serum albumin proteins noncovalently, which is evident from the UV-vis and emission spectroscopic studies. The broad absorption (550-850 nm) corresponding to the absorption of Sq aggregates narrowed with a turn-on fluorescence at 700 nm exc @ 640 nm) emission upon addition of BSA protein was observed (FIGS. 7a & 7b). The solution of the Sq dye in phosphate buffer has a blue color but nonemissive (FIG. 7c, top). […] The 1:6 Sq-BSA complex whose pH sensitivity lies within the physiological region and due to the ratiometric fluorescence response (FIG. 14) this system was used for monitoring minor pH fluctuations inside cells ratiometrically. […] Quantitative data for pH measurements in cells were obtained using bio-rad image data explorer software (table 2). […]

BSA protein = BSA protein (Bos taurus, UniProt P02769); assay: Noncovalent (pH 4.2) and covalent (pH 8.2) labeling of serum albumin, fluorescence turn-on; assay type: binding, Bovine; settings: 25 mM phosphate buffer, 6 μM
Sequence of BSA protein (P02769 25-607): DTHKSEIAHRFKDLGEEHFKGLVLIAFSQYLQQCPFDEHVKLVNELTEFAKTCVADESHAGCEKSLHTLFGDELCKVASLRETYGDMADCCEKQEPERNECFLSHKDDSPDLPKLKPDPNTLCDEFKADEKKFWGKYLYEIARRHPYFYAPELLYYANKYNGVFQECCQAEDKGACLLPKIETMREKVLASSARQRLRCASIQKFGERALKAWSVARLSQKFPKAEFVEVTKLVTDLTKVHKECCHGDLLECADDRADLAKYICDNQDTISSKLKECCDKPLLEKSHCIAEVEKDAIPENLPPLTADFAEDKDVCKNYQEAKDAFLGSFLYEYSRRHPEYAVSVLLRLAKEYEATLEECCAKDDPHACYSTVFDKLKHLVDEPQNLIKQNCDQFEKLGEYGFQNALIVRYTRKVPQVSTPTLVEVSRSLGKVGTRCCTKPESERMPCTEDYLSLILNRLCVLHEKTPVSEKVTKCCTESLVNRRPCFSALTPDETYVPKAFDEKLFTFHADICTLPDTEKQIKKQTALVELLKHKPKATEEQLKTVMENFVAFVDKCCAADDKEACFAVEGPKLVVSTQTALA
Protocol: Stock solution of Sq (1.2×10^−3 M) was prepared in acetonitrile and stock solution of BSA protein (2.4×10^−3M) was prepared in 25 mM phosphate buffer at pH 4.2. 15 μL of Sq from the stock solution is added to the 25 mM phosphate buffer at pH 4.2, to make the resulting concentration of the solution into 6×10^−6 M. To this solution different volumes ranging from 7.5-150 μL of BSA protein were added and the absorption and emission spectra were recorded each time after 20 minutes. The broad absorption (550-850 nm) corresponding to the absorption of Sq aggregates narrowed with a turn-on fluorescence at 700 nm (λexc @ 640 nm) emission was observed.
Stock solution of Sq (1.2×10^−3 M) was prepared in acetonitrile and stock solution of BSA protein (1.2×10^−3 M) was prepared in 25 mM phosphate buffer at a pH of 8.2. 15 μL of Sq from the stock solution is added to 25 mM phosphate buffer at pH 8.2, to make the resulting concentration of the solution to 6×10^−6 M. To this solution different volumes ranging from 1.5-36 μL of BSA protein were added and the absorption and emission spectra were recorded at 15 minutes interval. The broad absorption (550-850 nm) corresponding to the absorption of Sq aggregates quenched with concomitant formation of an absorption at 380 nm was observed (FIG. 8a). […]

Hep-G2 cells [7] = assay: Detection of minor thiol fluctuations inside HepG2 cells pre-treated with NEM; assay type: cell-based, Human; settings: NEM 3×10^−3 M to 3×10^−6 M, 15 minutes; dye 10 minutes
Protocol: as §1
Hep G2 cells (Human Hepatocellular carcinoma cell lines), which was obtained, from National Centre for Cell Science, Pune, India, were stored in cryovials at −196° C. in liquid nitrogen, in a medium containing 70% FBS, 10% dimethyl sulfoxide (DMSO) and 20% DMEM. […]
Hep-G2 cells were pre-incubated with NEM of various concentrations (3×10^−3 M to 3×10^−6 M) and kept for 15 minutes. […] The cells were then centrifuged and diluted for 2 times and then images were-taken using confocal fluorescence microscope using alexa (640 nm exc) and DAPI (380 nm exc) as filters.

| Compound | viability of the cells after incubation (Hep-G2 cells [1]) | Fluorescence Intensity, DAPI Image (Hep-G2 cells [1]; pH 6.5) | Fluorescence Intensity, Alexa Image (Hep-G2 cells [1]; pH 6.5) | Fluorescence Intensity, DAPI Image (Hep-G2 cells [1]; pH 7.0) | Fluorescence Intensity, Alexa Image (Hep-G2 cells [1]; pH 7.0) | Fluorescence Intensity, DAPI Image (Hep-G2 cells [1]; pH 7.5) | Fluorescence Intensity, Alexa Image (Hep-G2 cells [1]; pH 7.5) | fluorescence response with heamoglobin, glutathione reductase, bromelain at pH 8.2 ([2]; 0.10 equivalence, 480 nm) | fluorescence response with other thiols and nonthiol containing proteins at pH 4.2 ([2]; 10 equivalence, 700 nm) | pH range of stability [3] | fluorescence response with HSA at pH 8.2 (covalent labeling) (HSA protein; λexc 380 nm) | fluorescence response with HSA at pH 4.2 (noncovalent labeling) (HSA protein; λexc 640 nm) | fluorescence response with thiol containing small molecules at pH 8.2 [4] | diameter of spherical aggregates (AFM and TEM) ([5]; 6×10^−6 M in 25 mM phosphate buffer, pH 4.2) | mean diameter of aggregates (DLS) ([5]; buffer solution, Sq 6 μM) | selectivity toward thiols among amino acids (fluorescence at 510 nm) ([6]; 20 equivalence of 9 amino acids, 1 equivalence Cys, Hcy, GSH) | detection limit for GSH (fluorescent intensity at 510 nm) ([6]; 30% ACN/25 mM phosphate buffer, λexc 380 nm) | fluorescence response with BSA at pH 8.2 (covalent labeling) (BSA protein; λexc 380 nm) | fluorescence response with BSA at pH 4.2 (noncovalent labeling) (BSA protein; λexc 640 nm) | fluorescence intensity in cells versus NEM concentration (Hep-G2 cells [7]) |
| --- | --- | --- | --- | --- | --- | --- | --- | --- | --- | --- | --- | --- | --- | --- | --- | --- | --- | --- | --- | --- |
| 1:6 Sq-BSA complex: complex of squaraine dye Sq with BSA protein in ratio 1:6 | confirmed | 8.5 | 39.84 | 24.61 | 21.47 | 30.18 | 18.08 |  |  |  |  |  |  |  |  |  |  |  |  |  |
| CCCCN(CCCC)c1ccc(C2=C(O)C(c3ccc(/C=C/c4cc(OC)ccc4OC)n3CCOCCOCCOC)C2=O)cc1 (centres unmarked) [Sq, (E)-2-(4-(dibutylamino)phenyl)-4-(5-(2,5-dimethoxystyryl)-1-(2-(2-(2-methoxyethoxy)ethoxy)ethyl)-1H-pyrrol-2-yl)-3-hydroxycyclobut-2-enone] |  |  |  |  |  |  |  | unable to produce fluorescence enhancement at 480 nm | no fluorescence enhancement in the NIR region | 2-12 | green emission at 480 nm | fluorescence enhancement at 700 nm | unable to generate much fluorescent enhancement in the 480 nm region | 100-300 nm | 200 nm | highly selective to GSH | 2 nM | green emission at 480 nm | fluorescence enhancement at 700 nm | gradual quenching |
